Results on 16 compounds are retold here after patent publication US20260070917A1, “CYCLIN DEPENDENT KINASE DEGRADERS AND METHODS OF USE THEREOF” (Differentiated Therapeutics Inc, priority 2023, published 2026).

The structures appear in SMILES notation. Read-outs that look alike come from different tables or passages of the source.

What all share (format): cell-based
One assay concerns the target T1, CDK2 (Homo sapiens, UniProt P24941).
T1 construct: host or cells: HEK293-CDK2-Hibit
Nature of the assay: HiBit Assay Protocol for CDK2 (HIBIT protein quantification, degradation). The following applies: HEK293-CDK2-Hibit cells, compound treatment for 6 hours; for DC50: ABS DC50. A digest of the protocol:
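DC50 comes from a fitted curve of remaining CDK2-HiBiT luminescence, referenced to DMSO-treated cells and medium-only wells. HEK293-CDK2-HiBiT cells, plated the previous night, received compounds in a 10-point, 3-fold series for 6 h before lysis with LgBiT-containing Nano-Glo HiBiT reagent.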

The target in the next assay is T2, CCNE1 (Homo sapiens, UniProt P24864).
T2 construct: host or cells: HEK293-CCNE1-Hibit
The experiment in a line: HiBit Assay Protocol for CCNE1 (HIBIT protein quantification, degradation). The following applies: HEK293-CCNE1-Hibit cells, compound treatment for 6 hours. The gist of the method:
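Degradation readout: lytic Nano-Glo HiBiT luminescence after 6 h exposure of HEK293-CCNE1-HiBiT cells to 10-point, 3-fold serial dilutions. Signal was scaled between medium-only and DMSO-treated wells, and DC50 came from curve fits.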
(In general: The HiBiT peptide binds its large partner to form an active luciferase.)

A further assay concerns the target T3, CDK9 (Homo sapiens, UniProt P50750).
T3 construct: host or cells: HEK293-CDK9-Hibit
The experiment in a line: HiBit Assay Protocol for CDK9 (HIBIT protein quantification, degradation). The following applies: HEK293-CDK9-Hibit cells, compound treatment for 6 hours; for Dmax: read-out: CDK9 HIBIT Protein Quantification Maximum. As to the method: HiBit Assay Protocol for CDK9
• 1. The culture medium for HEK293-CDK9-Hibit cell was prepared using DMEM with 10% FBS. • 2. Cells were cultivated in T-75 flasks in a cell culture incubator set at 37° C., 5% CO2, 95% relative humidity. Cells were allowed to reach 80-90% confluence before detaching and splitting. • 3. Cultivated cells were rinsed in T-75 flasks with 5 mL PBS. Aspirated off. Added 1.5 mL trypsin, and incubated the cells at 37° C. for approximately 5 minutes or until the cells detached and floated. • 4. Trypsin was inactivated by adding excess serum containing medium. • 5. Cells were harvested from flask into cell culture medium and then the cell number was counted. HEK293-CDK9-Hibit cells were seeded into 384-well plate (cell density: 1.6×10^5 cells/well/50 uL medium) in DMEM medium according to the plate map below and were incubated overnight at 37° C. and 5% CO2. • Note: Cell Cultured Medium: 90% DMEM+10% FBS+1% Penicillin-Streptomycin Liquid
• 1. Test compounds were dissolved at 3 mM DMSO stock solution. Transferred 45 uL of stock solution to a 384 pp-plate. Perform 3-fold, 10-point dilution via transferring 15 uL compound into 30 uL DMSO by using TECAN liquid handler. • 2. The plates were spinned at room temperature at 1,000 RPM for 1 minute. • 3. Transferred 50 nL of diluted compound from compound source plate into the cell plate by Echo. • 4. After compound treatment for 6 hours, removed the plate from incubators and equilibrated at room temperature for 15 minutes. Prepared the HiBit reagent consists of the following ratios: 10 mL of Nano-Glo®-HiBiT Lytic Buffer, 200 uL of Nano-Glo®-HiBiT Lytic Substrate and 100 uL of LgBiT Protein, mixed thoroughly. Added 20 uL of HiBit reagent into each well and spinned the plates at room temperature at 1,000 RPM for 1 minute to be detected. Plates were then shaken at 600 RPM at room temperature for 20 minutes, and read by EnVision. • 5. The inhibition activity was calculated following the formula below:
[formula] • Note: Where HC was obtained from cells treated with 0.1% DMSO only; LC was obtained from culture medium only. • 6. The ABS DC50 was calculated by fitting the Curve using Xlfit (v5.3.1.3), equation 201: […]

T2 sequence (P24864 whole entry): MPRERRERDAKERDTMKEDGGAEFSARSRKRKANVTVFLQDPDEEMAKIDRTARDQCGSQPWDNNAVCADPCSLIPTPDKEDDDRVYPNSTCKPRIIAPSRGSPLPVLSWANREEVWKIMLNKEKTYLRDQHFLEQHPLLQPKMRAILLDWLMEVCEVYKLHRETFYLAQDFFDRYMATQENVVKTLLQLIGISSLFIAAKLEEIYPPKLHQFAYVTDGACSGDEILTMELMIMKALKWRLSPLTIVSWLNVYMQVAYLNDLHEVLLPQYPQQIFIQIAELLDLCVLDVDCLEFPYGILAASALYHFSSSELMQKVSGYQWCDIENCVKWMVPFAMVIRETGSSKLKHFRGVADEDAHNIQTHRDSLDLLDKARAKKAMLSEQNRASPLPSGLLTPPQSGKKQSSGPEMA
T3 sequence (P50750 whole entry): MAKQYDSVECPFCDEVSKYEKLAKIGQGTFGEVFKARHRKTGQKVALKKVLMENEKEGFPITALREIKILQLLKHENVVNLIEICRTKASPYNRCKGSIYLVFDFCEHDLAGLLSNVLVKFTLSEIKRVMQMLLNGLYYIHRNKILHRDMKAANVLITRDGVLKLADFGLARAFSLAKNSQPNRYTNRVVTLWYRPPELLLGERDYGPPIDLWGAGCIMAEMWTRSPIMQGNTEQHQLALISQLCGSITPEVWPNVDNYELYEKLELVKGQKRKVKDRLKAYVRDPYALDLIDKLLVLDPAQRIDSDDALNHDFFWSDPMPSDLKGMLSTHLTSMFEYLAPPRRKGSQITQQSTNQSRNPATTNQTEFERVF

As for `Cn1nc(N2CCC(=O)NC2=O)c2ccc(C3CCN(Cc4cccc(S(=O)(=O)N5CC[C@@H](Nc6ncc7c(n6)N([C@@H]6CCC[C@@H](O)C6)C(=O)C76CC6)[C@@H](F)C5)c4)CC3)cc21` [Compound 155, 1-{6-[1-({3-[(3S,4R)-3-Fluoro-4-{7′-[(1R,3R)-3-hydroxycyclohexyl]-6′-oxospiro[cyclopropane-1,5′-pyrrolo[2,3-d]pyrimidin]-2′-ylamino}piperidin-1-ylsulfonyl]phenyl}methyl)piperidin-4-yl]-1-methylindazol-3-yl}-1,3-diazinane-2,4-dione], the “CDK2 HIBIT Protein Quantification Maximum” value at CDK2 was determined as 19%. Moreover, the “CCNE1 HIBIT Protein Quantification Maximum” value on CCNE1 came to 14%. The Dmax on CDK9 (6 h) was found to be 8%.

One may read the DC50 as the concentration giving 50% degradation. `C[C@@H]1CN(c2ccc3c(N4CCC(=O)NC4=O)nn(C)c3c2)CCN1[C@H](C)c1cccc(S(=O)(=O)N2CC[C@H](Nc3ncc4c(n3)N([C@@H]3CCC[C@@H](O)C3)C(=O)C43CC3)[C@H](F)C2)c1` [Compound 191, 1-(6-((R)-4-((R)-1-(3-(((3R,4S)-3-Fluoro-4-((7′-((1R,3R)-3-hydroxycyclohexyl)-6′-oxo-6′,7′-dihydrospiro[cyclopropane-1,5′-pyrrolo[2,3-d]pyrimidin]-2′-yl)amino)piperidin-1-yl)sulfonyl)phenyl)ethyl)-3-methylpiperazin-1-yl)-1-methyl-1H-indazol-3-yl)dihydropyrimidine-2,4(1H,3H)-dione]: at CDK2, the “CDK2 HIBIT Protein Quantification Maximum” value worked out at 90% and the DC50 was 21.9 nM. Further, the “CCNE1 HIBIT Protein Quantification Maximum” value on CCNE1 stood at 48%. The Dmax at CDK9 (6 h) was determined as 9%.

Consider `CC1CCCC1N1C(=O)C2(CC2)c2cnc(NC3CCN(S(=O)(=O)N4CCC5(CCN(C(=O)CCCCCCCCCc6cccc7c6n(C)c(=O)n7C6CCC(=O)NC6=O)C5)C4)CC3)nc21` (centres unmarked) [Compound 52], for which, at CDK2, the “CDK2 HIBIT Protein Quantification Maximum” value came out at 56% and it took 2 nM to reach half-maximal degradation (DC50). Also, at CCNE1, the “CCNE1 HIBIT Protein Quantification Maximum” value is given as 19%. At CDK9 (6 h), the Dmax worked out at 29%.

`CC1CCCC1N1C(=O)C2(CC2)c2cnc(NC3CCN(S(=O)(=O)N4CC(N(C)C(=O)CCCCCCCCCc5ccc6c(c5)n(C)c(=O)n6C5CCC(=O)NC5=O)C4)CC3)nc21` (centres unmarked) [Compound 86]: at CDK2, the “CDK2 HIBIT Protein Quantification Maximum” value was determined as 65% and the DC50 came to 16 nM. At CCNE1, the “CCNE1 HIBIT Protein Quantification Maximum” value was determined as 37%. Moreover, the Dmax at CDK9 (6 h) is 34%.

Regarding `CC1CCCC1N1C(=O)C2(CC2)c2cnc(NC3CCN(S(=O)(=O)N4CCC5(CCN(C(=O)CCc6cccc7c6n(C)c(=O)n7C6CCC(=O)NC6=O)C5)C4)CC3)nc21` (centres unmarked) [Compound 21], on CDK2, the “CDK2 HIBIT Protein Quantification Maximum” value was 54% and the DC50 amounted to 41 nM. For the same compound, the “CCNE1 HIBIT Protein Quantification Maximum” value on CCNE1 was found to be 28%. For the same compound, the Dmax on CDK9 (6 h) was 28%.

On to `Cn1c(=O)n(C2CCC(=O)NC2=O)c2cccc(N3CCC(Cn4cc(S(=O)(=O)N5CCC(Nc6ncc7c(n6)N([C@@H]6CCC[C@@H](O)C6)C(=O)C76CC6)CC5)cn4)CC3)c21` (stereo partly drawn) [Compound 130, 3-(4-(4-((4-((4-((7′-((1R,3R)-3-Hydroxycyclohexyl)-6′-oxo-6′,7′-dihydrospiro[cyclopropane-1,5′-pyrrolo[2,3-d]pyrimidin]-2′-yl)amino)piperidin-1-yl)sulfonyl)-1H-pyrazol-1-yl)methyl)piperidin-1-yl)-3-methyl-2-oxo-2,3-dihydro-1H-benzo[d]imidazol-1-yl)piperidine-2,6-dione], for which, at CDK2, the “CDK2 HIBIT Protein Quantification Maximum” value worked out at 76% and the DC50 was determined as 15.8 nM. Further, at CCNE1, the “CCNE1 HIBIT Protein Quantification Maximum” value was determined as 34%. Moreover, the Dmax at CDK9 is 13%.

`O=C1CCC(N2Cc3cc(N4CCN(CC5CCN(c6cccc(S(=O)(=O)N7CCC(Nc8ncc9c(n8)N([C@@H]8CCC[C@@H](O)C8)C(=O)C98CC8)CC7)c6)CC5)CC4)ccc3C2=O)C(=O)N1` (stereo partly drawn) [Compound 122, 3-{5-[4-({1-[3-(4-{7′-[(1R,3R)-3-hydroxycyclohexyl]-6′-oxospiro[cyclopropane-1,5′-pyrrolo [2,3-d]pyrimidin]-2′-ylamino}piperidin-1-ylsulfonyl)phenyl]piperidin-4-yl}methyl)piperazin-1-yl]-1-oxo-3H-isoindol-2-yl}piperidine-2,6-dione]: at CDK2, the “CDK2 HIBIT Protein Quantification Maximum” value was determined as 79% and the DC50 amounted to 7 nM. For the same compound, the “CCNE1 HIBIT Protein Quantification Maximum” value at CCNE1 turned out to be 25%. Moreover, the Dmax on CDK9 amounted to 22%.

For `CC1CCCC1N1C(=O)C2(CC2)c2cnc(NC3CCN(S(=O)(=O)N4CC5(CN(CCCCOc6ccc7c(c6)n(C)c(=O)n7C6CCC(=O)NC6=O)C5)C4)CC3)nc21` (centres unmarked) [Compound 143], at CDK2, the “CDK2 HIBIT Protein Quantification Maximum” value came out at 11%. Besides, the “CCNE1 HIBIT Protein Quantification Maximum” value on CCNE1 is listed as 1%. Also, on CDK9 (6 h), the Dmax was -2%.

As to `CC1CCCC1N1C(=O)C2(CC2)c2cnc(NC3CCN(S(=O)(=O)N4CCN(C(=O)CCCCCc5cccc6c5n(C)c(=O)n6C5CCC(=O)NC5=O)CC4)CC3)nc21` (centres unmarked) [Compound 38], on CDK2, the “CDK2 HIBIT Protein Quantification Maximum” value came out at 71% and half-maximal degradation (DC50) was put at 4 nM. On CCNE1, the “CCNE1 HIBIT Protein Quantification Maximum” value was 46%. Moreover, the Dmax at CDK9 (6 h) stood at 57%. This compound returned a DC50 on CDK9 (ABS DC50) of 23 nM.

As for `CC1CCCC1N1C(=O)C2(CC2)c2cnc(NC3CCN(S(=O)(=O)C4CCCN(C(=O)CCCCCc5cccc6c5n(C)c(=O)n6C5CCC(=O)NC5=O)C4)CC3)nc21` (centres unmarked) [Compound 44], the “CDK2 HIBIT Protein Quantification Maximum” value on CDK2 turned out to be 39%. The “CCNE1 HIBIT Protein Quantification Maximum” value at CCNE1 came to 44%. For the same compound, on CDK9 (6 h), the Dmax stood at 5%.

As to `Cn1nc(N2CCC(=O)NC2=O)c2ccc(C3CCN(Cc4cccc(S(=O)(=O)N5CC[C@H](Nc6ncc7c(n6)N([C@@H]6CCC[C@@H](O)C6)C(=O)C76CC6)[C@H](F)C5)c4)CC3)cc21` [Compound 156], on CDK2, the “CDK2 HIBIT Protein Quantification Maximum” value amounted to 81% and half-maximal degradation (DC50) was put at 1.66 nM. The “CCNE1 HIBIT Protein Quantification Maximum” value on CCNE1 came out at 44%. Further, on CDK9 (6 h), the Dmax came to 9%.

Take `CC1CCCC1N1C(=O)C2(CC2)c2cnc(NC3CCN(S(=O)(=O)C4CCCN(C(=O)CCCCCc5ccc6c(c5)n(C)c(=O)n6C5CCC(=O)NC5=O)C4)CC3)nc21` (centres unmarked) [Compound 82]: the “CDK2 HIBIT Protein Quantification Maximum” value at CDK2 amounted to 26%. The “CCNE1 HIBIT Protein Quantification Maximum” value on CCNE1 worked out at 43%. Further, on CDK9 (6 h), the Dmax is 11%.

As for `CC1CCCC1N1C(=O)C2(CC2)c2cnc(NC3CCN(S(=O)(=O)N4CC5CN(C(=O)CCCc6cccc7c6n(C)c(=O)n7C6CCC(=O)NC6=O)CC5C4)CC3)nc21` (centres unmarked) [Compound 23], at CDK2, the “CDK2 HIBIT Protein Quantification Maximum” value worked out at 64% and the DC50 worked out at 98 nM. In addition, the “CCNE1 HIBIT Protein Quantification Maximum” value on CCNE1 amounted to 20%. Moreover, the Dmax at CDK9 (6 h) was determined as 49%.

Take `CC1CN(Cc2cccc(S(=O)(=O)N3CCC(Nc4ncc5c(n4)N([C@@H]4CCC[C@@H](O)C4)C(=O)C54CC4)CC3)c2)CCN1c1ccc2c(N3CCC(=O)NC3=O)nn(C)c2c1` (some centres unmarked) [Compound 185]: on CDK2, the “CDK2 HIBIT Protein Quantification Maximum” value came to 84% and half-maximal degradation (DC50) was put at 6.77 nM. Moreover, at CCNE1, the “CCNE1 HIBIT Protein Quantification Maximum” value amounted to 36%. For the same compound, at CDK9 (6 h), the Dmax is 5%.

Turning to `CC1CCCC1N1C(=O)C2(CC2)c2cnc(NC3CCN(S(=O)(=O)N4CC5(CCCCN5C(=O)CCCCCc5ccc6c(c5)n(C)c(=O)n6C5CCC(=O)NC5=O)C4)CC3)nc21` (centres unmarked) [Compound 76], the “CDK2 HIBIT Protein Quantification Maximum” value at CDK2 is on record as 29%. For the same compound, the “CCNE1 HIBIT Protein Quantification Maximum” value on CCNE1 stood at 20%. In addition, on CDK9 (6 h), the Dmax came out at 9%.

As for `CC1CCCC1N1C(=O)C2(CC2)c2cnc(NC3CCN(S(=O)(=O)N4CC5(CCCN(C(=O)CCCCCCCCCc6ccc7c(c6)n(C)c(=O)n7C6CCC(=O)NC6=O)C5)C4)CC3)nc21` (centres unmarked) [Compound 87], the “CDK2 HIBIT Protein Quantification Maximum” value on CDK2 was 44%. Moreover, the “CCNE1 HIBIT Protein Quantification Maximum” value at CCNE1 was determined as 11%. In addition, the Dmax at CDK9 (6 h) was found to be 13%.
